From US20230383291A1, “PEPTIDE-BASED TRANSDUCTION OF NON-ANIONIC POLYNUCLEOTIDE ANALOGS FOR GENE EXPRESSION MODULATION” (FELDAN BIO INC., priority 2020, published 2023)
Where a SMILES comes first, the peptide text is derived from it.

What was measured:
Assay type in all cases: cell-based, Human
[1] = tested on: HeLa cells; test: PMO, PNA and siRNA transduction in HeLa cells with FSD250; conditions: all conditions tested, FIG. 7B
Procedure: Phosphorodiamidate morpholino oligomers labeled with the fluorophore FITC (PMO-FITC) were prepared at 1 mM in sterile water. HeLa cells were plated (20 000 cells/well) in a 96 well-dish the day prior to the experiment. Each delivery mix comprising a synthetic peptide shuttle agent (7.5, 10 or 20 μM) and a PMO-FITC (6 μM) was prepared and completed to 50 μL with RPMI-1640 media. Cells were washed once with PBS and the shuttle agent/PMO-FITC or PMO-FITC alone added on cells for five minutes. Then, 100 μL DMEM containing 10% FBS was added to the mix and removed. Cells were washed once with PBS and incubated in DMEM containing 10% FBS. Cells were analyzed after a 2-hour incubation by flow cytometry.
HeLa cells were transduced with 10 μM of PMO-FITC or fluorescently-labeled Peptide Nucleic Acid (PNA) (PNA TelC-Alexa 488; cat. no. F1004; PNA BIO Inc.) as generally described in the transduction protocol described in Example 1 with a few modifications. The shuttle peptide used was FSD250 (5 μM) and cells were contacted with the cargo and shuttle agent for two minutes, and cells were analyzed after a 1-hour incubation by flow cytometry.

[2] = in vitro; conditions: human, RH-30 cells
Procedure: (§1) Although naked DNA/RNA cargoes are shown to themselves be poor cargoes of synthetic peptide shuttle agents (Examples 3 and 9), the present Example evaluates their potential dominant negative effect in trans on shuttle agent-mediated transduction of PMO cargoes. Briefly, RH-30 cells (150,000 cells/well in 24-well dish) were contacted with a delivery mix of 6 μM of a PMO-FITC and of 5 μM of the synthetic peptide shuttle agent FSD250 for 2 minutes in RPMI, in the presence of increasing amounts of a DNA oligonucleotide or an sgRNA spiked in medium. Cells were then washed, incubated in growth medium and then collected for analysis by flow cytometry after 1 h. […] In all conditions tested, cell viability remained above 75%.
(§2) The present Example compares the PMO transduction activity of a prototypical CPD-comprising first generation shuttle agent with that of two rationally-designed second generation synthetic peptide shuttle agents. Briefly, RH-30 cells (20,000 cells/well in 96-well dish) were contacted with a delivery mix of 6 μM of a PMO-FITC and increasing concentrations of the first-generation shuttle agent His-CM18-PTD4 or two CPD-lacking second generation synthetic peptide shuttle agents (FSD250 and FSD10) for 2 minutes in RPMI. Cells were washed, incubated in complete medium and then collected for analysis by flow cytometry after 1 h. […]

[3] = tested on: RH-30 cells; test: in vitro; conditions: 6 μM PMO-FITC, increasing shuttle concentrations, 2 minutes
Procedure: as §1, §2

[4] = tested on: Gli1 protein; test: Gli1 knock-down in DU145 cells, Western blot; conditions: FITC+ cells vs FITC− cells; 6 μM PMO, 5 μM FSD250, 48 hours
Procedure: DU145 cells were trypsinized and plated (500 000 cells/well) in a 24 well-dish the day prior to the experiment. […] Cells were washed once with PBS and delivery mixes were added on cells for five minutes. Then, 2 mL of RPMI-1640 containing 10% FBS was added to the mix and removed. Untreated cells were incubated with RPMI-1640 only. Cells were incubated in fresh RPMI-1640 containing 10% FBS. Forty height hours later, medium was removed and cells were washed once with PBS prior to trypsinization. Cells were harvested, collected by centrifugation, washed, and resuspended with PBS. Then, PMO-FITC positive and PMO-FITC negative cells were sorted and collected by virtue of FACS (BD FACS Aria Fusion). FITC-positive and FITC-negative cell samples were collected by centrifugation and resuspended in 50 μL protein extraction RIPA buffer (150 mM NaCl, 1% Nonidet™ P-40, 0.1% SDS, 0.5% Sodium deoxycholate, 25 mM Tris). Total protein concentrations were measured with a BCA protein assay kit. For all conditions, 10 μg of proteins were prepared at a final volume of 40 μL with 4× Laemmeli and RIPA buffer. Protein samples were then heated at 90° C. and separated through an 8% SDS-PAGE gel. Proteins were then transferred over night (25 volts) onto a […] PVDF membrane. Membranes were blocked using a 5% bovine serum albumin, Tris Buffer Saline, 0.1% Tween® 20 solution (5% BSA/TBS-T) for an hour. After blocking, the membrane was incubated for an hour with a 5% BSA/TBS-T solution containing anti alpha-Actinin (D6F6) primary antibody at a 1:1000. Alpha-Actinin protein present in the cell lysates served as loading control. Subsequently, the membranes were incubated over night with a 5% BSA/TBS-T solution containing anti-Gli1 primary antibody diluted 1:500. The membrane was then subjected to a 1-hour incubation at 1:5000 dilution of HRP-conjugated goat anti-rabbit secondary antibody 5% BSA/TBS-T solution. Chemiluminescence detection was performed using Clarity™ Western ECL Substrate and a ChemiDoc™ XRS apparatus. Gli1 and Alpha-Actinin densitometry was assessed using ImageJ™ software. […]

[5] = tested on: HeLa cells; test: PMO-FITC delivery in HeLa cells, immunofluorescence microscopy (vs Endoporter); conditions: 10 μM PMO-FITC with shuttle agent, 5-minute incubation in RPMI
Procedure: A PMO cargo delivery experiment in HeLa cells was performed to directly compare synthetic peptide shuttle agent-mediated PMO transduction with Endoporter-mediated intracellular PMO delivery. For shuttle agent-mediated transduction, HeLa cells were exposed to 10 μM of PMO-FITC in the presence of 2.5, 5, 7.5, or 10 μM of the second-generation shuttle agent FSD396 for 5 minutes in RPMI. For Endoporter-mediated delivery, HeLa cells were exposed to 10 μM of PMO-FITC in the presence of 2.5, 5, 7.5, or 10 μM of the commercially-available Endoporter' peptide (GeneTools, LLC) in growth medium for the manufacturer's recommended minimum incubation time of at least 24 hours. After a washing step, delivery results were compared by observing intracellular PMO-FITC fluorescence via immunofluorescence microscopy and results are shown in FIG. 11.

[6] = tested on: HeLa cells; test: Propidium iodide (PI) transduction screening in HeLa cells; conditions: negative control peptide tested in parallel; data not shown
Procedure: HeLa cells were plated (20 000 cells/well) in a 96 well-dish the day prior to the experiment. Each delivery mix comprising a synthetic peptide shuttle agent (10 μM) and the propidium iodide (PI) (10 μg/mL) or the GFP-NLS (10 μM) were prepared and completed to 50 μL with phosphate-buffered saline (PBS) for PI or with RPMI-1640 medium for GFP-NLS. Cells were washed once and the shuttle agent/PI or shuttle agent/GFP-NLS added on cells for one minute (PI) or 5 minutes (GFP-NLS). Then 100 μL DMEM containing 10% FBS was added to the mix and removed. Cells were washed once with PBS and incubated in DMEM containing 10% FBS. Cells were analyzed after 2-hour incubation by flow cytometry. Cells were analyzed […]. […]
Due to the large number of peptides screened, negative controls were performed in parallel for each experimental batch and included a “no treatment” (NT) control in which the cells were not exposed to shuttle peptide or cargo, as well as a “cargo alone” control in which cells were exposed to the cargo in the absence of shuttle agent. […] Mean PI or GFP-NLS delivery score was calculated by multiplying the mean fluorescence intensity (of at least duplicate samples) measured for the viable PI+ or GFP+ cells by the mean percentage of viable PI+ or GFP+ cells, divided by 100,000 for GFP delivery or by 10,000 for PI delivery. […]

Molecule: CC(C)C[C@H](NC(=O)[C@H](CCCCN)NC(=O)[C@H](CC(C)C)NC(=O)[C@H](CC(C)C)NC(=O)[C@H](CCCNC(=N)N)NC(=O)[C@H](CO)NC(=O)[C@H](Cc1c[nH]c2ccccc12)NC(=O)[C@H](CC(C)C)NC(=O)[C@H](CCCCN)NC(=O)[C@H](CC(C)C)NC(=O)[C@H](CC(C)C)NC(=O)[C@H](CCCCN)NC(=O)[C@H](Cc1c[nH]c2ccccc12)NC(=O)[C@@H](N)CCCCN)C(=O)N[C@@H](Cc1c[nH]c2ccccc12)C(=O)NCC(=O)NCC(=O)N[C@@H](CO)C(=O)NCC(=O)NCC(=O)NCC(=O)N[C@@H](CO)C(=O)N[C@@H](C)C(=O)N[C@@H](CCCNC(=N)N)C(=O)N[C@@H](C)C(=O)N[C@@H](C)C(=O)N[C@@H](CCCNC(=N)N)C(=O)N[C@@H](CCC(N)=O)C(=O)N[C@@H](C)C(=O)N[C@@H](CCCNC(=N)N)C(=O)O [FSD250] (H-KWKLLKLWSRLLKLWGGSGGGSARAARQAR-OH)
- Cell viability [1]: remained high
- viability at 2 min, 5 µM [2]: > 75%

Molecule: FSD10: CPD-lacking second generation synthetic peptide shuttle agent (KWKLARAFARAIKKLGGSGGGSYARALRRQARTG; FSD10)
- PMO-FITC transduction efficiency compared to His-CM18-PTD4 [3]: higher transduction efficiencies

Molecule: PMO-Wnt1: antisense PMO molecule designed to knock-down expression of the Wnt1 protein (antisense GCAACAGCGCCCAGAGCCCCATG; all phosphorodiamidate morpholino (PMO))
- Gli1 protein expression [4]: knocked-down

Molecule: FSD396: second-generation shuttle agent (KLKLAKLLLKALKKLGGSGGGSQAKAQAKQAK; FSD396)
- intracellular delivery of PMO-FITC [5]: robust intracellular delivery

Molecule: FSD174 Scramble: negative control peptide known to have low or no GFP transduction activity (LGRSGRIKIGGWSALASRARQARGLKIWTQGRL; FSD174 Scramble)
- PI transduction efficiency compared to cargo alone [6]: lower transduction efficiencies for PI
